Laboratory results published in patent US10160747B2, “Compounds and methods for kinase modulation, and indications therefor” (Plexxikon Inc., priority 2016, dated 2018).
pIC50: −log10 of the molar value.

Assays:
[1] = tested on: MOLM-14 F691L (endogenous FLT3 ITD and transfected FLT3 F691L); experiment: MOLM-14 F691L cell proliferation assay (CellTiter-Glo); assay type: cell-based; details: Homo sapiens, MOLM-14, 72 h; 3 d growth, GMean
Procedure, shortened: (§1)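 Three-day proliferation at 37 °C/5% CO2 of FLT3-ITD MOLM-14 lines with D835Y or F691L mutation, seeded 1×10^4 per well. Compounds at eight points, top 1 μM final, 0.2% DMSO. ATP luminescence (CellTiter-Glo) gives IC50.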

[2] = target: T1, BA/F3-FLT3-ITD + D835Y (Homo sapiens, UniProt P36888, D835Y, cells depend on it, form not given); experiment: Engineered BA/F3 cell growth assay, FLT3 ITD/D835Y; assay type: cell-based, murine; details: 3 d growth
T1 sequence (P36888 with tags, fused parts or gaps INS600HVDFREYEYD/D835Y): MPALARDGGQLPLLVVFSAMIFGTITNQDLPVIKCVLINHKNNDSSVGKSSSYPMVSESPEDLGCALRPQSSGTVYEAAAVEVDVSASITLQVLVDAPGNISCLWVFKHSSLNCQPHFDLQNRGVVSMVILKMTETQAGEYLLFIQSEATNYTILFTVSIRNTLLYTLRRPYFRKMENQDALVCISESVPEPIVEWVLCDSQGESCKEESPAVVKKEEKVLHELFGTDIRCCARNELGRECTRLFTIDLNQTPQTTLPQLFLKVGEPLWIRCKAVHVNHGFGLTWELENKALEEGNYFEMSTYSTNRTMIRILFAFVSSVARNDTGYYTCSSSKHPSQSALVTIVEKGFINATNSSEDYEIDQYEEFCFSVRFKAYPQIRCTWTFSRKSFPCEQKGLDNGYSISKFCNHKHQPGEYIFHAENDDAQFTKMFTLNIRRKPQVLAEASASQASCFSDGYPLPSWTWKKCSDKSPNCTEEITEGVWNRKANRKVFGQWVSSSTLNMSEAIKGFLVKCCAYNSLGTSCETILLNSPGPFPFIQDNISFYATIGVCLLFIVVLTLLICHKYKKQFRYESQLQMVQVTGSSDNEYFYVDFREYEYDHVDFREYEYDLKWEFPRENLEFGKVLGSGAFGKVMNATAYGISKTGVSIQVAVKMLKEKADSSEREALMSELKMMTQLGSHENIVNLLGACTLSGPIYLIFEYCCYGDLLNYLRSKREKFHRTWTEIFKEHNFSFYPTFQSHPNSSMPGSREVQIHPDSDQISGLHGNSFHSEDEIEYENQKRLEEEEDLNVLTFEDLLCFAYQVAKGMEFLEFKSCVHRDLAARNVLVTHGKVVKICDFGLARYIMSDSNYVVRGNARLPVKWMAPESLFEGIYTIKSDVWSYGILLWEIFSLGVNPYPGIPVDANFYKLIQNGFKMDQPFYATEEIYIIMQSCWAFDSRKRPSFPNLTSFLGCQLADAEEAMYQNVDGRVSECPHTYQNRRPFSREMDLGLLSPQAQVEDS
Procedure, shortened: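 IC50 derived from CellTiter-Glo ATP luminescence after 3 days at 37 °C, 5% CO2, over eight 1:3 dilutions from 1 μM (0.2% DMSO final). Cells: IL-3-independent murine Ba/F3 expressing full-length FLT3 ITD/D835Y, 1×10^4 per well.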

[3] = tested on: MOLM-14 D835Y (endogenous FLT3 ITD and transfected FLT3 D835Y); experiment: MOLM-14 D835Y cell proliferation assay (CellTiter-Glo); assay type: cell-based; details: Homo sapiens, MOLM-14, 72 h; 3 d growth, GMean
Procedure, shortened: as §1

Structure (SMILES)	pIC50 [1]	GI50 [2] [µM]	pIC50 [3]
Cn1cc(Nc2ncc(-c3ccc(CC(=O)Nc4cccc(C(F)(F)F)c4)cc3)cn2)cn1 [Compound P-0141, 2-[4-[2-[(1-methylpyrazol-4-yl)amino]pyrimidin-5-yl]phenyl]-N-[3-(trifluoromethyl)phenyl]acetamide]	5.00 to 10.00	0.0001 to 10	5.00 to 10.00
Cn1cc(Nc2ncc(-c3ccc(CC(=O)Nc4ccc(C(F)(F)F)c(F)c4)cc3)cn2)cn1 [Compound P-0142, N-[3-fluoro-4-(trifluoromethyl)phenyl]-2-[4-[2-[(1-methylpyrazol-4-yl)amino]pyrimidin-5-yl]phenyl]acetamide]	5.00 to 10.00	0.0001 to 10	5.00 to 10.00
Cn1cc(Nc2ncc(-c3ccc(CC(=O)Nc4cncc(C(C)(F)F)c4)cc3)cn2)cn1 [Compound P-0144, N-[5-(1,1-difluoroethyl)-3-pyridyl]-2-[4-[2-[(1-methylpyrazol-4-yl)amino]pyrimidin-5-yl]phenyl]acetamide]	5.00 to 10.00	0.0001 to 10	5.00 to 10.00
Cn1cc(Nc2ncc(-c3ccc(CC(=O)Nc4cnc(Cl)c(C(F)(F)F)c4)cc3)cn2)cn1 [Compound P-0145, N-[6-chloro-5-(trifluoromethyl)-3-pyridyl]-2-[4-[2-[(1-methylpyrazol-4-yl)amino]pyrimidin-5-yl]phenyl]acetamide]	5.00 to 10.00	0.0001 to 10	5.00 to 10.00
COc1ncc(NC(=O)Cc2ccc(-c3cnc(Nc4cn(C)cn4)nc3)cc2)cc1C(F)(F)F [Compound P-0149, N-[6-methoxy-5-(trifluoromethyl)-3-pyridyl]-2-[4-[2-[(1-methylimidazol-4-yl)amino]pyrimidin-5-yl]phenyl]acetamide]	5.00 to 10.00	0.0001 to 10	5.00 to 10.00
Cc1ncc(NC(=O)Cc2ccc(-c3cnc(Nc4cn(C)cn4)nc3)cc2)cc1C(F)(F)F [Compound P-0150, 2-[4-[2-[(1-methylimidazol-4-yl)amino]pyrimidin-5-yl]phenyl]-N-[6-methyl-5-(trifluoromethyl)-3-pyridyl]acetamide]	5.00 to 10.00	0.0001 to 10	5.00 to 10.00
Cn1cc(Nc2ncc(-c3ccc(CC(=O)Nc4ccnc(S(C)(=O)=O)c4)cc3)cn2)cn1 [Compound P-0154, 2-[4-[2-[(1-methylpyrazol-4-yl)amino]pyrimidin-5-yl]phenyl]-N-(2-methylsulfonyl-4-pyridyl)acetamide]	5.00 to 10.00	0.0001 to 10	5.00 to 10.00
Cn1cc(Nc2ncc(-c3ccc(CC(=O)Nc4cccc(S(C)(=O)=O)c4)cc3)cn2)cn1 [Compound P-0155, 2-[4-[2-[(1-methylpyrazol-4-yl)amino]pyrimidin-5-yl]phenyl]-N-(3-methylsulfonylphenyl)acetamide]	5.00 to 10.00	0.0001 to 10	5.00 to 10.00
Cn1cc(Nc2ncc(-c3ccc(CC(=O)Nc4ccc(S(C)(=O)=O)cc4)cc3)cn2)cn1 [Compound P-0156, 2-[4-[2-[(1-methylpyrazol-4-yl)amino]pyrimidin-5-yl]phenyl]-N-(4-methylsulfonylphenyl)acetamide]	5.00 to 10.00	0.0001 to 10	5.00 to 10.00
Cn1cc(Nc2ncc(-c3ccc(CC(=O)Nc4cccc(OC(F)(F)F)c4)cc3)cn2)cn1 [Compound P-0157, 2-[4-[2-[(1-methylpyrazol-4-yl)amino]pyrimidin-5-yl]phenyl]-N-[3-(trifluoromethoxy)phenyl]acetamide]	5.00 to 10.00	0.0001 to 10	5.00 to 10.00
Cn1cc(Nc2ncc(-c3ccc(CC(=O)NCc4ncccc4C(F)(F)F)cc3)cn2)cn1 [Compound P-0159, 2-[4-[2-[(1-methylpyrazol-4-yl)amino]pyrimidin-5-yl]phenyl]-N-[[3-(trifluoromethyl)-2-pyridyl]methyl]acetamide]	5.00 to 10.00	0.0001 to 10	5.00 to 10.00
Cn1cc(Nc2ncc(-c3ccc(CC(=O)NCc4cncc(C(F)(F)F)c4)cc3)cn2)cn1 [Compound P-0161, 2-[4-[2-[(1-methylpyrazol-4-yl)amino]pyrimidin-5-yl]phenyl]-N-[[5-(trifluoromethyl)-3-pyridyl]methyl]acetamide]	5.00 to 10.00	0.0001 to 10	5.00 to 10.00
CCn1cc(Nc2ncc(-c3ccc(CC(=O)Nc4cncc(C(F)(F)F)c4)cc3)cn2)cn1 [Compound P-0166, 2-[4-[2-[(1-ethylpyrazol-4-yl)amino]pyrimidin-5-yl]phenyl]-N-[5-(trifluoromethyl)-3-pyridyl]acetamide]	5.00 to 10.00	0.0001 to 10	5.00 to 10.00
Cn1cnc(Nc2ncc(-c3ccc(CC(=O)Nc4cncc(C(F)(F)F)c4)cc3)cn2)c1 [Compound P-0167]	5.00 to 10.00	0.0001 to 10	5.00 to 10.00
Cn1cnc(Nc2ncc(-c3ccc(CC(=O)Nc4cnc(F)c(C(C)(F)F)c4)cc3)cn2)c1 [Compound P-0168, N-[5-(1,1-difluoroethyl)-6-fluoro-3-pyridyl]-2-[4-[2-[(1-methylimidazol-4-yl)amino]pyrimidin-5-yl]phenyl]acetamide]	5.00 to 10.00	0.0001 to 10	5.00 to 10.00

Other lines, results leading:

pIC50 [1]	GI50 [2] [µM]	pIC50 [3]	Structure (SMILES)
5.00 to 10.00	0.0001 to 10	5.00 to 10.00	Cn1cc(Nc2ncc(-c3ccc(CC(=O)Nc4ccc(C(C)(C)C)nc4)cc3)cn2)cn1 [Compound P-0143, N-(6-tert-butyl-3-pyridyl)-2-[4-[2-[(1-methylpyrazol-4-yl)amino]pyrimidin-5-yl]phenyl]acetamide]
5.00 to 10.00	0.0001 to 10	5.00 to 10.00	Cn1cc(Nc2ncc(-c3ccc(CC(=O)Nc4ccc(C(C)(C)C#N)nc4)cc3)cn2)cn1 [Compound P-0146, N-[6-(1-cyano-1-methyl-ethyl)-3-pyridyl]-2-[4-[2-[(1-methylpyrazol-4-yl)amino]pyrimidin-5-yl]phenyl]acetamide]
5.00 to 10.00	0.0001 to 10	5.00 to 10.00	Cn1cc(Nc2ncc(-c3ccc(CC(=O)Nc4cccc(C(F)(F)F)n4)cc3)cn2)cn1 [Compound P-0152, 2-[4-[2-[(1-methylpyrazol-4-yl)amino]pyrimidin-5-yl]phenyl]-N-[6-(trifluoromethyl)-2-pyridyl]acetamide]
5.00 to 10.00	0.0001 to 10	5.00 to 10.00	Cn1cc(Nc2ncc(-c3ccc(CC(=O)Nc4cccc(C(C)(C)C#N)c4)cc3)cn2)cn1 [Compound P-0158, N-[3-(1-cyano-1-methyl-ethyl)phenyl]-2-[4-[2-[(1-methylpyrazol-4-yl)amino]pyrimidin-5-yl]phenyl]acetamide]
5.00 to 10.00	0.0001 to 10	5.00 to 10.00	COc1ccccc1CNC(=O)Cc1ccc(-c2cnc(Nc3cnn(C)c3)nc2)cc1 [Compound P-0160, N-[(2-methoxyphenyl)methyl]-2-[4-[2-[(1-methylpyrazol-4-yl)amino]pyrimidin-5-yl]phenyl]acetamide]
5.00 to 10.00	0.0001 to 10	5.00 to 10.00	Cn1cc(Nc2ncc(-c3ccc(CC(=O)Nc4cc(Cl)c(C5CC5)cn4)cc3)cn2)cn1 [Compound P-0164, N-(4-chloro-5-cyclopropyl-2-pyridyl)-2-[4-[2-[(1-methylpyrazol-4-yl)amino]pyrimidin-5-yl]phenyl]acetamide]
5.00 to 10.00	0.0001 to 10	5.00 to 10.00	CCn1cc(Nc2ncc(-c3ccc(CC(=O)Nc4cnc(Cl)c(C(F)(F)F)c4)cc3)cn2)cn1 [Compound P-0165, N-[6-chloro-5-(trifluoromethyl)-3-pyridyl]-2-[4-[2-[(1-ethylpyrazol-4-yl)amino]pyrimidin-5-yl]phenyl]acetamide]
5.00 to 10.00	0.0001 to 10	5.00 to 10.00	Cn1cnc(Nc2ncc(-c3ccc(CC(=O)Nc4cc(C(C)(F)F)ccn4)cc3)cn2)c1 [Compound P-0169, N-[4-(1,1-difluoroethyl)-2-pyridyl]-2-[4-[2-[(1-methylimidazol-4-yl)amino]pyrimidin-5-yl]phenyl]acetamide]
